Data as given in ChEMBL document CHEMBL1139057, “Rotenoids and flavonoids with anti-invasion of HT1080, anti-proliferation of U937, and differentiation-inducing activity in HL-60 from Erycibe expansa” (Bioorg Med Chem, 2007).
Blank lines part the entries; values can stand above or below the molecule they belong to.

What was measured:
U-937 [1] = assay: Antiproliferative activity against human U937 cells after 48 hrs by WST-8 assay; format: functional, cell-based; settings: U-937, 48 h
U-937 [2] = assay: Antiproliferative activity against human U937 cells after 72 hrs by WST-8 assay; format: functional, cell-based; settings: U-937, 72 h
U-937 [3] = assay: Antiproliferative activity against human U937 cells after 24 hrs by WST-8 assay; format: functional, cell-based; settings: U-937, 24 h
HT-1080 [4] = assay: Inhibition of invasion of human HT1080 cells at 30 uM after 24 hrs; format: functional; settings: HT-1080, 24 h
HT-1080 [5] = assay: Inhibition of invasion of human HT1080 cells at 3 uM after 24 hrs; format: functional; settings: HT-1080, 24 h
HT-1080 [6] = assay: Inhibition of invasion of human HT1080 cells at 10 uM after 24 hrs; format: functional; settings: HT-1080, 24 h
HT-1080 [7] = assay: Antiproliferative activity against human HT1080 cells at 1 uM after 24 hrs by calcein-AM assay; format: functional; settings: HT-1080, 24 h
HT-1080 [8] = assay: Antiproliferative activity against human HT1080 cells at 1 uM after 24 hrs by MTT assay; format: functional; settings: HT-1080, 24 h
HT-1080 [9] = assay: Antiproliferative activity against human HT1080 cells at 10 uM after 24 hrs by calcein-AM assay; format: functional; settings: HT-1080, 24 h
HT-1080 [10] = assay: Antiproliferative activity against human HT1080 cells at 10 uM after 24 hrs by MTT assay; format: functional; settings: HT-1080, 24 h
HT-1080 [11] = assay: Antiproliferative activity against human HT1080 cells at 1 uM after 72 hrs by MTT assay; format: functional; settings: HT-1080, 72 h
HT-1080 [12] = assay: Antiproliferative activity against human HT1080 cells at 30 uM after 72 hrs by calcein-AM assay; format: functional; settings: HT-1080, 72 h
HT-1080 [13] = assay: Antiproliferative activity against human HT1080 cells at 1 uM after 48 hrs by MTT assay; format: functional; settings: HT-1080, 48 h
HT-1080 [14] = assay: Antiproliferative activity against human HT1080 cells at 1 uM after 72 hrs by calcein-AM assay; format: functional; settings: HT-1080, 72 h
HT-1080 [15] = assay: Antiproliferative activity against human HT1080 cells at 10 uM after 48 hrs by calcein-AM assay; format: functional; settings: HT-1080, 48 h
HT-1080 [16] = assay: Antiproliferative activity against human HT1080 cells at 10 uM after 72 hrs by calcein-AM assay; format: functional; settings: HT-1080, 72 h
HT-1080 [17] = assay: Antiproliferative activity against human HT1080 cells at 3 uM after 24 hrs by MTT assay; format: functional; settings: HT-1080, 24 h
HT-1080 [18] = assay: Antiproliferative activity against human HT1080 cells at 30 uM after 72 hrs by MTT assay; format: functional; settings: HT-1080, 72 h
HT-1080 [19] = assay: Antiproliferative activity against human HT1080 cells at 3 uM after 72 hrs by calcein-AM assay; format: functional; settings: HT-1080, 72 h
HT-1080 [20] = assay: Antiproliferative activity against human HT1080 cells at 3 uM after 24 hrs by calcein-AM assay; format: functional; settings: HT-1080, 24 h
HT-1080 [21] = assay: Antiproliferative activity against human HT1080 cells at 3 uM after 48 hrs by MTT assay; format: functional; settings: HT-1080, 48 h
HT-1080 [22] = assay: Antiproliferative activity against human HT1080 cells at 10 uM after 48 hrs by MTT assay; format: functional; settings: HT-1080, 48 h
HT-1080 [23] = assay: Antiproliferative activity against human HT1080 cells at 30 uM after 24 hrs by MTT assay; format: functional; settings: HT-1080, 24 h
HT-1080 [24] = assay: Antiproliferative activity against human HT1080 cells at 30 uM after 48 hrs by MTT assay; format: functional; settings: HT-1080, 48 h
HT-1080 [25] = assay: Antiproliferative activity against human HT1080 cells at 3 uM after 72 hrs by MTT assay; format: functional; settings: HT-1080, 72 h
HT-1080 [26] = assay: Inhibition of invasion of human HT1080 cells at 1 uM after 24 hrs; format: functional; settings: HT-1080, 24 h
HT-1080 [27] = assay: Antiproliferative activity against human HT1080 cells at 10 uM after 72 hrs by MTT assay; format: functional; settings: HT-1080, 72 h
HT-1080 [28] = assay: Antiproliferative activity against human HT1080 cells at 30 uM after 48 hrs by calcein-AM assay; format: functional; settings: HT-1080, 48 h
HT-1080 [29] = assay: Antiproliferative activity against human HT1080 cells at 3 uM after 48 hrs by calcein-AM assay; format: functional; settings: HT-1080, 48 h
HT-1080 [30] = assay: Antiproliferative activity against human HT1080 cells at 1 uM after 48 hrs by calcein-AM assay; format: functional; settings: HT-1080, 48 h
HT-1080 [31] = assay: Antiproliferative activity against human HT1080 cells at 30 uM after 24 hrs by calcein-AM assay; format: functional; settings: HT-1080, 24 h

- IC50 (U-937 [1]): 28 µM
- IC50 (U-937 [2]): 20 µM
- IC50 (U-937 [3]): 36 µM
Compound: COc1cc(O)cc2c1C(=O)O[C@@H](C)CCCCCCC2 [LASIODIPLODIN]

- IC50 (U-937 [1]): > 100 µM
- IC50 (U-937 [2]): > 100 µM
- IC50 (U-937 [3]): > 100 µM
Compound: COc1ccc2c(=O)c(-c3ccc(OC)c(OC)c3)coc2c1

- IC50 (U-937 [1]): 4.3 µM
- IC50 (U-937 [2]): 2.9 µM
- IC50 (U-937 [3]): 37 µM
Compound: COc1ccc([C@@H]2CCc3c(OC)cc(OC)cc3O2)c(O)c1 [ERYCEBENIN E]

- IC50 (U-937 [1]): 44 µM
- IC50 (U-937 [2]): 45 µM
- IC50 (U-937 [3]): 50 µM
Compound: COc1ccc(-c2coc3cc(O)ccc3c2=O)cc1 [FORMONONETIN]

- IC50 (U-937 [1]): > 100 µM
- IC50 (U-937 [2]): > 100 µM
- IC50 (U-937 [3]): > 100 µM
Compound: O=C1C=C2OC[C@H]3c4cc5c(cc4O[C@H]3[C@@]2(O)CC1)OCO5

- IC50 (U-937 [1]): > 100 µM
- IC50 (U-937 [2]): > 100 µM
- IC50 (U-937 [3]): > 100 µM
Compound: CC(C)(O)[C@@H](O)Cc1c(O)cc(O)c2c(=O)c(-c3ccc(O)cc3)coc12 [ERYCIBENIN B]

Compound: CC(=O)O[C@H]1C(=O)[C@@]2(C)[C@H]([C@H](OC(=O)c3ccccc3)[C@]3(O)C[C@H](OC(=O)[C@H](O)[C@@H](NC(=O)c4ccccc4)c4ccccc4)C(C)=C1C3(C)C)[C@]1(OC(C)=O)CO[C@@H]1C[C@@H]2O [PACLITAXEL]
- inhibition at 30 µM (HT-1080 [4]): 89.2%
- inhibition at 3 µM (HT-1080 [5]): 79.8%
- inhibition at 10 µM (HT-1080 [6]): 87.8%
- inhibition at 1 µM (HT-1080 [7]): -0.5%
- inhibition at 1 µM (HT-1080 [8]): 4.7%
- inhibition at 10 µM (HT-1080 [9]): 12.4%
- inhibition at 10 µM (HT-1080 [10]): 12.2%
- inhibition at 1 µM (HT-1080 [11]): 65.6%
- inhibition at 30 µM (HT-1080 [12]): 87.7%
- inhibition at 1 µM (HT-1080 [13]): 43.7%
- inhibition at 1 µM (HT-1080 [14]): 59.8%
- inhibition at 10 µM (HT-1080 [15]): 70.9%
- inhibition at 10 µM (HT-1080 [16]): 87.6%
- inhibition at 3 µM (HT-1080 [17]): 12.6%
- inhibition at 30 µM (HT-1080 [18]): 79.9%
- inhibition at 3 µM (HT-1080 [19]): 87%
- inhibition at 3 µM (HT-1080 [20]): 10.8%
- inhibition at 3 µM (HT-1080 [21]): 48.7%
- inhibition at 10 µM (HT-1080 [22]): 50%
- inhibition at 30 µM (HT-1080 [23]): 10.3%
- inhibition at 30 µM (HT-1080 [24]): 50.3%
- inhibition at 3 µM (HT-1080 [25]): 79.8%
- inhibition at 1 µM (HT-1080 [26]): 50.5%
- inhibition at 10 µM (HT-1080 [27]): 81.4%
- inhibition at 30 µM (HT-1080 [28]): 70%
- inhibition at 3 µM (HT-1080 [29]): 64.4%
- inhibition at 1 µM (HT-1080 [30]): 46.2%
- inhibition at 30 µM (HT-1080 [31]): 10.3%

- IC50 (U-937 [1]): 21 µM
- IC50 (U-937 [2]): 18 µM
- IC50 (U-937 [3]): 29 µM
Compound: COc1ccc([C@@H]2CCc3c(OC)cc(OC)cc3O2)cc1

- IC50 (U-937 [1]): 35 µM
- IC50 (U-937 [2]): 32 µM
- IC50 (U-937 [3]): 28 µM
Compound: CC(C)=CCc1c(O)cc2occ(-c3ccc(O)cc3)c(=O)c2c1O [WIGHTEONE]

- IC50 (U-937 [1]): > 100 µM
- IC50 (U-937 [2]): > 100 µM
- IC50 (U-937 [3]): > 100 µM
Compound: COc1cc([C@H]2Oc3cc(O)ccc3C(=O)[C@@H]2O)ccc1O [ERYCIBENIN D]

- IC50 (U-937 [1]): 20 µM
- IC50 (U-937 [2]): 13 µM
- IC50 (U-937 [3]): 26 µM
Compound: CC1(C)C=Cc2c(cc(O)c3c(=O)c(-c4ccc(O)cc4)coc23)O1 [DERRONE]

- IC50 (U-937 [1]): > 100 µM
- IC50 (U-937 [2]): > 100 µM
- IC50 (U-937 [3]): > 100 µM
Compound: COc1ccc2c(c1)O[C@@H]1[C@H]2COC2=CC(=O)CC[C@@]21O

- IC50 (U-937 [1]): > 100 µM
- IC50 (U-937 [2]): > 100 µM
- IC50 (U-937 [3]): > 100 µM
Compound: COc1ccc2c(c1)O[C@H]1c3ccc(OC)cc3OC[C@@H]21 [HOMOPTEROCARPIN]

- IC50 (U-937 [1]): 85 µM
- IC50 (U-937 [2]): 74 µM
- IC50 (U-937 [3]): 68 µM
Compound: COc1cc(-c2coc3cc(O)cc(O)c3c2=O)ccc1O [3'-O-METHYLOROBOL]

- IC50 (U-937 [1]): > 100 µM
- IC50 (U-937 [2]): > 100 µM
- IC50 (U-937 [3]): > 100 µM
Compound: Oc1ccc2c(c1)OC[C@H]1c3cc4c(cc3O[C@@H]21)OCO4 [MAACKIAIN]
